Holding throughout (assay): DTP human tumour cell line panel, 48 h
The subject of assay [1] is ACHN renal.
Assay [2] has as its system CAKI-1 renal.
In assay [3] the test system is CCRF-CEM leukemia.
Assay [4] concerns HL-60(TB) leukemia.
Assay [5] concerns HOP-62 NSCLC.
The test system of assay [6] is HS 578T breast.
The subject of assay [7] is MALME-3M melanoma.
Assay [8] concerns MCF7 breast.
In assay [9] the test system is MDA-MB-231 breast.
The test system of assay [10] is MDA-N.
The test system of assay [11] is NCI/ADR-RES ovarian.
The test system of assay [12] is OVCAR-4 ovarian.
For assay [13], the system named is SK-MEL-28 melanoma.
In assay [14] the test system is SK-MEL-5 melanoma.
Assay [15] concerns SNB-19 CNS.
The test system of assay [16] is BT-549 breast.
The subject of assay [17] is HCC-2998 colon.
Assay [18] relates to MDA-MB-435.
The subject of assay [19] is UACC-62 melanoma.

This note sets out measurements from PubChem BioAssay (NCI).

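The compound was tested at five concentrations on cells cultured in 96-well plates, with a 48-hour exposure period. Definition used: TGI = concentration required for complete inhibition of growth.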 Some results are limits rather than exact numbers.

As usually defined, the TGI is the concentration giving total growth inhibition. A higher TGI goes with lower sensitivity of the cells. In the case of `Cc1ccc(N(C(=O)Nc2ccc(F)c(Cl)c2)C2=NCC(C)S2)cc1` (stereo unspecified), the TGI in assay [1] was more than 100 µM; in assay [2] it was more than 100 µM; in assay [3], more than 100 µM; in assay [4] it was 73.2 µM; in [5], more than 100 µM; in [6], more than 100 µM. In addition, the TGI was more than 100 µM in [7]; 32.6 µM in assay [8]; more than 100 µM in [9]; more than 100 µM in [10]; 73.2 µM in [11]; more than 100 µM in assay [12]. For the same compound, the values for the TGI in assay [13], in assay [14] and in [15] were more than 100 µM, 41 µM and more than 100 µM, respectively.
`Cc1c2c(Cl)c3c(c(Cl)c2c(C)c2c(Cl)c4c(c(Cl)c12)C(c1ccccc1)(c1ccccc1)C4(c1ccccc1)c1ccccc1)C(c1ccccc1)(c1ccccc1)C3(c1ccccc1)c1ccccc1`: the TGI in assay [1], in [16], in assay [2], in assay [3], in assay [17] and in assay [5] was more than 100 µM each time. The TGI in [7], in assay [8], in assay [9], in [18], in assay [10] and in [11] was more than 100 µM throughout. In addition, the TGI in assay [12], in assay [13], in assay [14], in [15] and in assay [19] was more than 100 µM each time.
Take `COc1cc([C@H]2CC(=O)C[C@H](c3cc(OC)c(OC)c(OC)c3)C23C(=O)c2ccccc2C3=O)cc(OC)c1OC`: the TGI in assay [1], in assay [16], in assay [2], in [17], in assay [5] and in [6] was more than 100 µM in each case. In addition, the TGI in assay [7], in assay [8], in assay [9], in [18], in assay [11] and in [13] was more than 100 µM in each case. Moreover, the TGI in assay [14], in assay [15] and in assay [19] was more than 100 µM in each case.
With `CC1OC(OC2C(OC(=O)[C@@H]3CC(C)(C)C[C@@H]4C5=CC[C@@H]6[C@@]7(C)C[C@H](O)[C@H](OC8OC(CO)C(O)C(O)C8O)[C@@](C)(CO)C7[C@H](O)C[C@@]6(C)[C@]5(C)C[C@@H](O)[C@H]43)OCC(O)C2O)C(O)C(O)C1O` (stereo partly specified), the TGI in assay [1], in assay [16], in [2], in assay [3], in [17] and in assay [4] was more than 15 µM throughout. The TGI in assay [5], in [6], in assay [8], in assay [9], in [18] and in assay [11] was more than 15 µM throughout. In addition, the TGI in [12], in assay [14], in [15] and in [19] was more than 15 µM throughout.
With `COc1ccc(/C=C2\N=C(SC)N(CN3CCCCC3)C2=O)cc1`, the TGI in [1], in assay [5], in assay [6], in assay [7], in [8] and in [9] was more than 100 µM in each case. Further, the TGI in [18], in [10], in assay [11], in assay [12], in [13] and in assay [14] was more than 100 µM throughout. Moreover, the TGI in assay [15] and in assay [19] was more than 100 µM in each case.
Consider `CN1CCCOC(c2ccc([N+](=O)[O-])cc2)O1` (stereo unspecified), for which the TGI in assay [1], in assay [16], in assay [2], in [3], in [17] and in [5] was more than 100 µM in each case. Besides, the TGI in assay [7], in assay [8], in assay [9], in assay [18], in [10] and in [11] was more than 100 µM throughout. For the same compound, the concentration for total growth inhibition (TGI) in assay [12], in [13], in assay [14], in assay [15] and in assay [19] was more than 100 µM each time.
As for `Cc1ccc(C2=C(C#N)C(=O)N3CCN=C3S2)cc1`, the TGI in assay [1], in [16], in assay [2], in [3], in [17] and in [7] was more than 100 µM throughout. For the same compound, the TGI in [8], in assay [9], in assay [18], in [10], in [11] and in [12] was more than 100 µM throughout. For the same compound, the TGI in assay [13], in assay [14], in [15] and in assay [19] was more than 100 µM in each case.
Take `C/C(=N\NC(=O)c1ccncc1)c1ccccc1F`: the TGI in assay [1], in assay [2], in assay [3], in [17], in [4] and in assay [5] was more than 10 µM throughout. The TGI in [7], in assay [8], in assay [10], in assay [11], in [13] and in assay [14] was more than 10 µM throughout. In [15], the total growth inhibition concentration (TGI) is more than 10 µM.
Turning to `CC(=O)N1C(NN(C)C)CCN1c1ccccc1` (stereo unspecified), the TGI in assay [2], in [3], in [17], in assay [4], in [5] and in assay [7] was more than 10 µM throughout. The TGI in [8], in assay [9], in assay [18], in assay [12], in [13] and in [14] was more than 10 µM each time. The TGI in [19] is more than 10 µM.
As for `COC(=O)CN1SC2(SC13C(C)(C)C(=O)C3(C)C)C(C)(C)C(=O)C2(C)C`, the TGI in assay [1] is more than 100 µM; in assay [16] it was 90.3 µM; in assay [2] it was more than 100 µM; in assay [3], 32.8 µM; in [17], more than 100 µM; in [5], more than 100 µM. For the same compound, the TGI in assay [6] is more than 100 µM; in assay [7], more than 100 µM; in assay [8], more than 100 µM; in assay [9], more than 100 µM; in assay [18], more than 100 µM; in assay [11] it was 87.8 µM. The TGI in assay [12], in assay [13], in assay [14], in assay [15] and in [19] was more than 100 µM in each case.
On to `COc1c(Br)cc(/C=C(\C#N)c2cccnc2)cc1Br`, for which the TGI in assay [1], in assay [16], in assay [2], in assay [3], in assay [17] and in [4] was more than 100 µM in each case. For the same compound, the TGI in [5], in assay [7], in assay [8], in assay [10], in [11] and in [12] was more than 100 µM each time. For the same compound, the TGI in [13], in [14], in assay [15] and in assay [19] was more than 100 µM in each case.
For the compound `COCn1cnc2c(=O)n(-c3ccc(OC)cc3)c(=S)n(-c3ccc(OC)cc3)c21`, the TGI in assay [1], in assay [16], in assay [2], in [3], in [17] and in [4] was more than 100 µM throughout. Further, the TGI in assay [5], in assay [8], in assay [9], in [18], in assay [11] and in assay [12] was more than 100 µM throughout. In addition, the TGI in [13], in assay [14] and in assay [19] was more than 100 µM throughout.
On to `CN(C(=O)C1CCCCCC1=O)c1ccccc1Cl` (stereo unspecified), for which the TGI in assay [1], in [16], in assay [2], in assay [5], in assay [7] and in assay [9] was more than 100 µM each time. Also, the TGI in assay [18], in assay [11], in [12], in assay [13], in assay [14] and in assay [15] was more than 100 µM each time.
Take `CC(=O)N(C(C)=O)n1c(-c2ccccc2)n[nH]c1=O`: the TGI in assay [1], in assay [16], in [3], in [17], in [5] and in assay [8] was more than 100 µM each time. The TGI in assay [9], in assay [18], in assay [10], in assay [11], in [12] and in assay [13] was more than 100 µM throughout. Further, the TGI in assay [14], in assay [15] and in assay [19] was more than 100 µM throughout.
